The values below are quoted from earlier work in patent US9452976B2, “Pactamycin analogs and methods of making thereof” (Oregon State University, priority 2007, dated 2016).

For series [1], the system named is Gram-positive and Gram-negative bacteria.
For series [2] the following is noted: reason clinical application was abandoned.

In the case of `CC[C@]1(NC(=O)N(C)C)[C@@H](N)[C@H](Nc2cccc(C(C)=O)c2)[C@](O)(COC(=O)c2c(C)cccc2O)[C@]1(C)O` [7-Deoxypactamycin, 7-deoxypactamycin], in series [1] (relative to pactamycin), the “activity against a number of Gram-positive and Gram-negative bacteria, compared with pactamycin” value was “equally active”.

`CC(=O)c1cccc(N[C@H]2[C@H](N)[C@@](NC(=O)N(C)C)([C@H](C)O)[C@@](C)(O)[C@@]2(O)COC(=O)c2c(C)cccc2O)c1` [Pactamycin, pactamycin]: the “antibacterial activities against Gram-positive and Gram-negative bacteria” value in series [1] (Bhuyan, Appl. Microbiol. 1962) is “potent antibacterial activities”. For the same molecule, in the series with tumor, the anti-tumor activity entry was “strong anti-tumor activity”. Moreover, the toxicity entry in series [2] was “high toxicity”.

Consider `CC(=O)c1cccc(N[C@H]2[C@H](N)[C@]3(NC(=O)O[C@H]3C)[C@@](C)(O)[C@@]2(O)COC(=O)c2c(C)cccc2O)c1` [pactamycate], for which the “bioactivity of the cyclic derivative formed by attack of C-7 hydroxyl on the carbamoyl carbonyl” value in series [1] is “inactive”.
